Data on five compounds can be found in patent EP1972333A1, “Stabilised aqueous solutions of ergolin compounds” (Axxonis Pharma AG, priority 2007, dated 2008).

In brackets after ≈: the same amount, converted by molar mass. Like-named read-outs stand apart in the source and are kept apart here.

Data set [1] in a line: Solubility of free ergoline compounds in water / phosphate-buffered solution. The format is physicochemical. The conditions noted are these: for solubility: free compound, read-out: Löslichkeit; for Löslichkeit in Wasser: compared with Lisurid. The method, then: Für strukturverwandte Wirkstoffe, welche auf derselben Grundstruktur basieren, können ähnliche physikalischchemische Aktivitäten in vitro, in vivo sowie in klinischen Studien erwartet werden. Die Lisuridderivate Tergurid und Protergurid weisen Alkylsubstituenten am Stickstoff (N6) der Grundstruktur sowie eine Einfachbindung zwischen den Positionen 9 und 10 auf. […] Die Löslichkeit des freien Protergurid beträgt beispielsweise 2.6 mg/100 mL in einer phosphatgepufferten Lösung (pH 7.4). Die Löslichkeit des freien Lisurids kann entsprechend auf 2.2 mg/100 mL abgeschätzt werden, wobei dieser Wert aus den Löslichkeitsdaten der jeweiligen Wirkstoffe/Wirkstoffsalze kalkuliert wurde (Zimmermann I (1983) International Journal of Pharmaceutics 13: 57-65).

Data set [2] is described as follows: Solubility improvement by cosolvent. The class given is physicochemical. Conditions: Propylenglykol as low-dosed additive (weniger als 10%).
For data set [3] the following is noted: 60°C, one week, in the dark, 10080 min.
Protocol: Als Additive wurden Propylenglykol und Cremophor ELP in Konzentrationen zwischen 1.00 und 10.00% eingesetzt. […] Die Lösungen wurden im Dunkeln in Glasbehältern bei 60°C für eine Woche aufbewahrt.
Data set [4] in a line: Stability of Lisuridhydrogenmaleat in citrate-buffered aqueous solutions (RP-HPLC, UV detection). Conditions: citrate buffer; for Färbung / degraded at 4320 h: no cosolvent; for Mittlere Fläche (Lisuridpeakfläche zur totalen Peakfläche des Chromatogramms): t 0 d; for degraded at 4320 h: 180 Tage, protected from light.
For data set [5] the following is noted: for Mittlere Fläche (Lisuridpeakfläche zur totalen Peakfläche des Chromatogramms): 9% Propylenglykol, no buffer, 2 mg/3 mL.
Protocol: Die Wirkstoffkonzentration wurde auf 2 mg pro 3 mL eingestellt. Es wurde kein Puffersystem hinzugegeben. Das weitere Vorgehen umfasste das Einwiegen von 33.3 mg des Wirkstoffs in einen skalierten 50 mL Kolben, anschließende Zugabe des Propylenglykols (4.5g) sowie die Beigabe von 40 mL Wasser. Der Kolben wurde für mehrere Minuten geschüttelt und anschließend Ultraschall ausgesetzt, bis der Wirkstoff vollständig gelöst war. Der Kolben wurde auf Raumtemperatur abgekühlt und bis zur Markierung mit bidestilliertem Wasser aufgefüllt. Abschließend wurde zur Gewährleistung der Homogenität für eine weitere Minute geschüttelt. Die Lösung wurde in durchsichtige Glasampullen von 1 ml Volumen abgefüllt. Diese wurden luftdicht verschlossen und zum Lichtschutz mit Aluminiumfolie umwickelt. Die Ampullen wurden jeweils bei 6 bis 8°C, 25°C und 40°C aufbewahrt.
The conditions of data set [6]: oral, daily; 17th Report of the Joint FAO/WHO Expert Committee on Food Additives, 1974; cited from earlier work.

Turning to `CCN(CC)C(=O)N[C@H]1C=C2c3cccc4[nH]cc(c34)C[C@H]2N(C)C1` [Lisurid], in data set [1] (estimated, calculated from solubility data of the drugs/drug salts (Zimmermann 1983)), the solubility was roughly 22 µg/mL.

Broadly, the share remaining is what is left of the initial amount, in per cent. Low readings indicate more turnover, high ones less turnover. As to `CCN(CC)C(=O)N[C@H]1C=C2c3cccc4[nH]cc(c34)C[C@H]2N(C)C1` [Lisuridhydrogenmaleat], the “Löslichkeit des Wirkstoffs” value in data set [2] is “verbesserten Löslichkeit”. Besides, the Wirkstoff zerfallen in data set [3] (1% Cremophor ELP) is 14,3%; in data set [3] (10% Cremophor ELP), 21.3%; in data set [5] (Kühlschrank (6-8°C), 180 Tage, protected from light, 9% Propylenglykol (cosolvent)), roughly 0.4%. Further, the Färbung result in data set [4] (40°C, after 30 Tagen) is “signifikante gelbe Färbung”; in data set [4] (40°C, after weiteren 60 Tagen (following the first 30)) it was “Braun”. Moreover, the “Mittlere Fläche (Lisuridpeakfläche zur totalen Peakfläche des Chromatogramms)” value (“Mittlere Fläche” for short) in data set [4] (Erhöhte Temperatur (40°C), pH 3.5, 2 mg/3 mL) was 99,87 Prozent; in data set [4] (Erhöhte Temperatur (40°C), pH 4.5, 2 mg/3 mL) it was 99,79 Prozent; in data set [4] (Erhöhte Temperatur (40°C), pH 5.1, 2 mg/3 mL), 100,00 Prozent; in data set [4] (Kühlschrank (6-8°C), pH 3.5, 2 mg/3 mL), 99,87 Prozent; in data set [4] (Kühlschrank (6-8°C), pH 4.5, 2 mg/3 mL), 99,79 Prozent; in data set [4] (Kühlschrank (6-8°C), pH 5.1, 2 mg/3 mL), 100,00 Prozent. Further, the “Mittlere Fläche” value in data set [4] (Raumtemperatur (25°C), pH 3.5, 2 mg/3 mL) is on record as 99,87 Prozent; in data set [4] (Raumtemperatur (25°C), pH 4.5, 2 mg/3 mL), 99,79 Prozent; in data set [4] (Raumtemperatur (25°C), pH 5.1, 2 mg/3 mL) it was 100,00 Prozent; in data set [5] (Erhöhte Temperatur (40°C), t 0 d), 99.80 Prozent; in data set [5] (Erhöhte Temperatur (40°C), t 7 d), 99.33 Prozent; in data set [5] (Erhöhte Temperatur (40°C), t 30 d), 97.59 Prozent. Moreover, the “Mittlere Fläche” value in data set [5] (Erhöhte Temperatur (40°C), t 90 d) is on record as 94.06 Prozent; in data set [5] (Erhöhte Temperatur (40°C), t 180 d), 89.76 Prozent; in data set [5] (Kühlschrank (6-8°C), t 0 d), 99.80 Prozent; in data set [5] (Kühlschrank (6-8°C), t 30 d) it was 99.67 Prozent; in data set [5] (Kühlschrank (6-8°C), t 90 d), 99.52 Prozent; in data set [5] (Raumtemperatur (25°C), t 0 d), 99.80 Prozent. Besides, the “Mittlere Fläche” value was 99.46 Prozent in data set [5] (Raumtemperatur (25°C), t 30 d); 99.15 Prozent in data set [5] (Raumtemperatur (25°C), t 90 d); 98.35 Prozent in data set [5] (Raumtemperatur (25°C), t 180 d). The degraded at 4320 h in data set [4] (Wirkstoff zersetzt, 40°C) was no more than 30%; in data set [4] (Zersetzung, Kühlschrank (6-8°C)), roughly 0.7%; in data set [4] (pH 5.1, Zersetzung, Raumtemperatur (25°C), citrate buffer pH 5.1, 4.5, 3.5), 5%. The compound also displayed a share remaining at 720 h in data set [4] (pH 3.5, Mittlere Fläche (Lisuridpeakfläche zur totalen Peakfläche des Chromatogramms), Erhöhte Temperatur (40°C), pH 3.5, t 30 d, 2 mg/3 mL) of 90.4%. In addition, the share remaining at 2160 h turned out to be 73.4% in data set [4] (pH 3.5, Mittlere Fläche (Lisuridpeakfläche zur totalen Peakfläche des Chromatogramms), Erhöhte Temperatur (40°C), pH 3.5, t 90 d, 2 mg/3 mL) and 90.4% in data set [4] (pH 4.5, Mittlere Fläche (Lisuridpeakfläche zur totalen Peakfläche des Chromatogramms), Erhöhte Temperatur (40°C), pH 4.5, t 90 d, 2 mg/3 mL). Besides, the share remaining at 4320 h in data set [4] (pH 3.5, Mittlere Fläche (Lisuridpeakfläche zur totalen Peakfläche des Chromatogramms), Erhöhte Temperatur (40°C), pH 3.5, t 180 d, 2 mg/3 mL) is 69.9%; in data set [4] (pH 4.5, Mittlere Fläche (Lisuridpeakfläche zur totalen Peakfläche des Chromatogramms), Erhöhte Temperatur (40°C), pH 4.5, t 180 d, 2 mg/3 mL) it was 87.7%; in data set [4] (pH 5.1, Mittlere Fläche (Lisuridpeakfläche zur totalen Peakfläche des Chromatogramms), Erhöhte Temperatur (40°C), pH 5.1, t 180 d, 2 mg/3 mL), 88%. Besides, the Wirkstoff zersetzt in data set [5] (40°C, 180 Tage, 9% Propylenglykol (cosolvent)) is reported as roughly 10%.

Consider `CC(O)CO` (stereo not drawn) [Propylenglykol, 1,2-Propandiol (Propylenglykol)], for which the “geschätzte Menge, welche als tägliche orale Dosis akzeptabel ist” value in data set [6] was 25 mg/kg kg.

With `CCCN1C[C@@H](NC(=O)N(CC)CC)C[C@@H]2c3cccc4[nH]cc(c34)C[C@H]21` [Protergurid], the “Löslichkeit in Wasser” value in data set [1] is given as “vergleichbare Löslichkeit in Wasser wie Lisurid”. Moreover, the solubility in data set [1] (phosphate-buffered solution, phosphatgepufferte Lösung (pH 7.4)) amounted to 26 µg/mL (≈ 70.6 µM).

For the compound `CCN(CC)C(=O)N[C@H]1C[C@@H]2c3cccc4[nH]cc(c34)C[C@H]2N(C)C1` [Tergurid], the “Löslichkeit in Wasser” value in data set [1] is “vergleichbare Löslichkeit in Wasser wie Lisurid”.
